We go through five compounds from patent US8765972B2 (priority 2009, dated 2014).

As usually defined, the Vd is a proportionality between amount in the body and measured concentration, not a real space. In general, clearance refers to the volume of plasma or blood freed of the substance per unit of time. The AUC(0-t) is exposure summed from dosing to a finite time, without extrapolation to infinity. A low value points to less exposure. The half-life is the time needed for the level to fall by half in the phase considered. A low value points to fast loss. For orientation: Kd means the equilibrium constant for the complex coming apart. As usually defined, the IC50 is the concentration needed to halve the response being measured.

SMILES strings stand for the structures. Read-outs that look alike come from different tables or passages of the source.

The conditions of data set [1]: male, Balb, Nu/Nu, mouse, in vivo, 10 mg/kg.
Description: The compounds were formulated in 10% tween 80/dextrose for intravenous bolus administration while oral administrations were performed using the compounds formulated in 0.5% methylcellulose. […] Plasma samples were prepared by plasma proteins precipitation adding 200 μL of methanol to 10 μL of plasma in a 96 well plate. […] The supernatant was considered as final extract and injected onto the LC-MS-MS system (HPLC system: Hewlett Packard 1100 series using Atlantis HILIC Silica 50*2.1 mm 5.0 μm analytical column; MS instrument: Perkin Elmer SCIEX API 2000 and ionization performed with Turbo Ion Spray in positive ion mode). Lower limit of quantification is 5.0 ng/mL, upper limit of quantification is 10000 ng/mL. Analysis was performed using the Watson package (version 6.4.0.04) and Excel spreadsheet (Microsoft Inc. Seattle, USA). Non-compartmental method (linear trapezoidal rule and linear regression analysis of natural log-transformed plasma concentrations vs. time data) was used. After intravenous dosing, Co was set equal to Co 083 Absolute bioavailability (F) was calculated from the ratio of average oral to IV (intravenous) dose-normalized plasma AUC (area under curve) values.
Data set [2] has as its target T1, PARP-1 (Homo sapiens (Human), UniProt P09874). The note with it: for DC50: read-out: PARP-1 (DC50).
Description: (§1) Affinity evaluation of the tested compounds and their selectivity with respect to the different PARP isoforms of interest was assessed in a displacement assay.
(§2) The polarization signal can be measured, e.g., by a plate reader such as the Saphire2 (Tecan). The displacement ability of the test compound is in correlation with the compound affinity for the NAD pocket of the enzyme.
(§3) In all of the experiments, the polarization signal was measured using a Saphire2 plate reader (Tecan). Data analysis was performed using Dynafit software. In particular, titration data were fitted to the following equilibria: Enzyme+probe<==>Complex Enzyme-probe, while displacement data were fitted to the following equilibria: Enzyme+probe<==>Complex Enzyme-probe, Enzyme+Compound<==>Complex Enzyme-Compound, whereby binding of probe and compound on the enzyme are mutually exclusive (pure competitive mechanism). Displacement data were also fitted using Excell spreadsheet (Microsoft Inc. Seattle, USA) to a four parameter logistic model (4PL), or Hill-Slope model to calculate DC50s where the DC50 value represents the compound concentration at which the polarization signal is diminished by 50% compared to untreated controls.
(§4) In agreement, affinity binding constants (KD) were determined by fitting with a pure competitive mechanism. KD values, are the average of three independent experiments.
The target of the next data set is PARP-2 (Homo sapiens (Human), UniProt Q9UGN5). The note with it: read-out: PARP-2 (DC50); probe compound P1.
The next data set in a line: in vivo. To be noted: male, Balb, Nu/Nu, mouse, 10 mg/kg; for Vd / clearance: iv; for AUC(0-t) / half-life: po.
For data set [3] the following is noted: male, Balb, athymic Nu/Nu, mouse, in vivo, po.
Excerpt: (§5) Balb, athymic Nu/Nu male mice, from Harlan (Italy), were maintained in agreement with the European Communities Council Directive no. 86/609/EEC concerning the protection of animals used for experimental or other scientific purposes, in cages with paper filter cover, food and bedding sterilized and acidified water. Fragments of Capan-1 human pancreatic cancer tumors were implanted subcutaneously. […] Each group included seven animals. The treatment started one day after randomization. Compound of formula (I) was administered by oral route as a methocel suspension at the indicated doses and times. Tumor dimension was measured regularly by calipers during the experiments and tumor mass was calculated as described in Simeoni M. et al., Cancer Res 64, 1094-1101 (2004).
For data set [4], the target named is T1, PARP-1. Put plainly: biochemical. The note with it: PARP-1 (Kd).
Description: as §1, §2, §3, §4
For the next data set, the target named is PARP-3 (Homo sapiens (Human), UniProt Q9Y6F1). To be noted: read-out: PARP-3 (DC50); probe compound P1.
Data set [5] deals with Capan-1 human pancreatic cancer tumors. Put plainly: In vivo efficacy, Capan-1 BRCA-2 mutated mouse model, single agent. The note with it: oral. The arrangement: species or system Balb, athymic Nu/Nu male mice.
Excerpt: as §5
Data set [6] deals with PAR formation in HeLa cells. Put plainly: cells. The note with it: Homo sapiens, read-out: PAR assay (IC50).
Description: Cellular PAR levels were measured by immunocytochemistry, and quantified using an ArrayScan vTi instrument (Cellomics Thermo Scientific). […] Test compounds were then added at the required concentration for 30'. […] After 3 washes in PBS, wells incubated in PBS (w/v) 5% FBS 0.05% Tween20 containing 2 μg/mL Cy2-conjugated Goat anti mouse secondary antibody (Amersham Pharmacia Biotech cat. […] At least 10 fields, corresponding to at least 900 cells, were read for each well. […] X is the logarithm of concentration. IC50 is the response; IC50 starts at Bottom and goes to Top with a sigmoid shape.
The subject of data set [7] is ovarian cancer patients with confirmed BRCA-1 mutations. The note with it: phase I, monotherapy, preliminary data; cited from earlier work.

T1 sequence (P09874 whole entry): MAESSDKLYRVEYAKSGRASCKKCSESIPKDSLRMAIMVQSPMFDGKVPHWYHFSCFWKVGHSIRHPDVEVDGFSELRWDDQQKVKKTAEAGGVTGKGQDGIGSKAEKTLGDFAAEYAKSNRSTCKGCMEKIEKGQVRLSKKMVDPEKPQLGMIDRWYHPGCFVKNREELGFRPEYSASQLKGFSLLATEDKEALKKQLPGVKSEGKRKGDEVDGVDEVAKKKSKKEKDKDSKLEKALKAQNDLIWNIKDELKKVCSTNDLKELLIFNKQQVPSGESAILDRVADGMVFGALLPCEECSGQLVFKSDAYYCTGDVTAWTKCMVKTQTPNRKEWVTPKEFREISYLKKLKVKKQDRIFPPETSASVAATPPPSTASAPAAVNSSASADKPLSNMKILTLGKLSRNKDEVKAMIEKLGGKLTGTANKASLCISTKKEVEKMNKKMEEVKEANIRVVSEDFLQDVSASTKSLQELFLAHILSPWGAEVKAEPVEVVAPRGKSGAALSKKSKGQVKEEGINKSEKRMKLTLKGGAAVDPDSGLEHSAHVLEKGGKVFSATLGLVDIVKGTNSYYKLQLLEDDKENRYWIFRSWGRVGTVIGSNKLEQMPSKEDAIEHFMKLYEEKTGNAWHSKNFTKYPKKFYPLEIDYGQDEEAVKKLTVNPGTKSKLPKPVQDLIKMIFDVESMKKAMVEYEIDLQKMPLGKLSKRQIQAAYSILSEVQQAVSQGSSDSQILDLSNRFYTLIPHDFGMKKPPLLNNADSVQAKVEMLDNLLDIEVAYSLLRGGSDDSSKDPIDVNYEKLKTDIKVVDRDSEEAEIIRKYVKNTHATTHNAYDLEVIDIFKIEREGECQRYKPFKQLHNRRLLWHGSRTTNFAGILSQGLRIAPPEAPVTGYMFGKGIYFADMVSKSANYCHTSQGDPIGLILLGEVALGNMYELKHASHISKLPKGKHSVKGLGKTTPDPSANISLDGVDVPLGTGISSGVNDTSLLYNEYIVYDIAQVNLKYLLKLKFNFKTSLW
PARP-3, sequence (Q9Y6F1 whole entry): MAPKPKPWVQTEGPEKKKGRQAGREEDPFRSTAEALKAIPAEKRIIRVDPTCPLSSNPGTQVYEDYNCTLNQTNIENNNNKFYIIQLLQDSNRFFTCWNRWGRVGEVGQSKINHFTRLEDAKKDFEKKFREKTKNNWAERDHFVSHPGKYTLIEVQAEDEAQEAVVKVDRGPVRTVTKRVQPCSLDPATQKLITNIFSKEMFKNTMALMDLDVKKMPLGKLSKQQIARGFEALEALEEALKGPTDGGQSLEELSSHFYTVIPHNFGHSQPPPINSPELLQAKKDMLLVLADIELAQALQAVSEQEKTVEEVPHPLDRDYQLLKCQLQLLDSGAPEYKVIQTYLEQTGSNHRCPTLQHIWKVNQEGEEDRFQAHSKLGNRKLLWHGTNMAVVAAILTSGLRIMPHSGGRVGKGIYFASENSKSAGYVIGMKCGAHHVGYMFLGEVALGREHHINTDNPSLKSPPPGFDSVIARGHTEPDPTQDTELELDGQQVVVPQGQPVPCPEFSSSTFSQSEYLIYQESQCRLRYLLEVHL
PARP-2, sequence (Q9UGN5 whole entry): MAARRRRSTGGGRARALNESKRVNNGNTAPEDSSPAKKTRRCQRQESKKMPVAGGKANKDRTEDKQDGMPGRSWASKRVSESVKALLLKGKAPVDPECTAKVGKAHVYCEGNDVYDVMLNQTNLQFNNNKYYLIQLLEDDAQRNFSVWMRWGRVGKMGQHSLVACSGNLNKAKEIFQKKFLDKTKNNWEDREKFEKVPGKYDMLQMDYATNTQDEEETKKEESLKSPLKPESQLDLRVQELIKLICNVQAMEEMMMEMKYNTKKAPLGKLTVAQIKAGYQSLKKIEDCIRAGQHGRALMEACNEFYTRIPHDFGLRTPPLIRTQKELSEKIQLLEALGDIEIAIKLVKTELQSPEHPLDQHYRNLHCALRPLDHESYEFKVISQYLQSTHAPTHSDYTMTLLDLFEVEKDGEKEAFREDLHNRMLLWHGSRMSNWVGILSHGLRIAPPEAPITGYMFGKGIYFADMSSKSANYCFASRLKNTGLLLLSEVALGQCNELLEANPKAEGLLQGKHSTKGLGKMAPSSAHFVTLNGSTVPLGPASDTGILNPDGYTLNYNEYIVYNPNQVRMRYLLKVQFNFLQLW
Description for PARP-2: as §1, §2, §3, §4
Description for PARP-3: as §1, §2, §3, §4

In the case of `CC1c2cccc(C(N)=O)c2C(=O)N1C1CCN(C2CCCCC2)CC1` (racemic) [Compound 3, 2-(1-Cyclohexylpiperidin-4-yl)-1-methyl-3-oxo-2,3-dihydro-1H-isoindole-4-carboxamide], in data set [1], the “C-max (oral)” value came out at 2.53 µM. The DC50 at PARP-1 [2] was less than 250 nM. Also, the DC50 on PARP-2 was more than 10000 nM. For the same compound, in the data set “in vivo”, the Vd came out at 3.61 L/kg, the clearance was 32.6 mL/min/kg, the AUC(0-t) turned out to be 13.5 µM·h and the half-life is 3.04 h. Further, the “Toxicity (body weight reduction, mice affected out of 7 treated)” value in data set [3] (100 mg/kg) is given as 0/7. This compound also returned a dissociation constant (Kd) on PARP-1 [4] of less than 10 nM. The DC50 on PARP-3 was more than 10000 nM. The “Max TGI (%)” value in [5] (100 mg/kg, schedule 1-10 daily) came out at 51%. Besides, in data set [6], the half-maximal inhibitory concentration (IC50) was 280 nM.
In the case of `O=C(c1cc(Cc2n[nH]c(=O)c3ccccc23)ccc1F)N1CCN(C(=O)C2CC2)CC1` [AZD2281], the partial responses in [7] is recorded as 4 out of 10.
Regarding `C[C@H]1c2cccc(C(N)=O)c2C(=O)N1C1CCN(C2CCCCC2)CC1` [Compound 4, (1S)-2-(1-Cyclohexylpiperidin-4-yl)-1-methyl-3-oxo-2,3-dihydro-1H-isoindole-4-carboxamide], in [1], the “C-max (oral)” value stood at 1.37 µM. Also, at PARP-1 [2], the DC50 is less than 250 nM. In addition, the DC50 at PARP-2 is more than 10000 nM. Further, in the data set “in vivo”, the volume of distribution (Vd) was 6.8 L/kg, the clearance was determined as 53.4 mL/min/kg, the area under the curve AUC(0-t) worked out at 4.93 µM·h and the half-life is 2.62 h. In addition, the “Toxicity (body weight reduction, mice affected out of 7 treated)” value in data set [3] (75 mg/kg) was 0/7. Besides, the Kd on PARP-1 [4] is less than 10 nM. Moreover, the DC50 on PARP-3 was more than 10000 nM. Besides, the “Max TGI (%)” value in data set [5] (75 mg/kg, schedule 1-10 daily) came to 52%. Also, the concentration for half-maximal inhibition (IC50) in data set [6] came out at 150 nM.
Regarding `CC1c2cccc(C(N)=O)c2C(=O)N1C1CCN(C2CCCC2)CC1` (centres unmarked) [Compound 13, 2-(1-Cyclopentylpiperidin-4-yl)-1-methyl-3-oxo-2,3-dihydro-1H-isoindole-4-carboxamide], the “C-max (oral)” value in data set [1] is 3.64 µM. For the same compound, on PARP-1 [2] (probe compound P1), the DC50 is less than 250 nM. In addition, the Kd at PARP-1 [2] (read-out: PARP-1 (Kd), probe compound P3) turned out to be 50 nM. For the same compound, the DC50 at PARP-2 turned out to be 1460 nM. In addition, in “in vivo”, the volume of distribution (Vd) was 4.7 L/kg, the clearance came out at 26.7 mL/min/kg, the AUC(0-t) was 18.3 µM·h and the half-life was 2.9 h. In addition, the “Toxicity (body weight reduction, mice affected out of 7 treated)” value in [3] (100 mg/kg) is recorded as 0/7. Besides, the DC50 on PARP-3 is more than 10000 nM. Also, the “Max TGI (%)” value in data set [5] (100 mg/kg, schedule 1-20 daily) turned out to be 18%. In addition, the IC50 in data set [6] worked out at 500 nM.
Regarding `CC1c2cccc(C(N)=O)c2C(=O)N1C1CCN(CC2CCCCC2)CC1` (centres unmarked) [Compound 21, 2-[1-(Cyclohexylmethyl)piperidin-4-yl]-1-methyl-3-oxo-2,3-dihydro-1H-isoindole-4-carboxamide], in data set [1], the “C-max (oral)” value was 1.2 µM. In addition, the DC50 on PARP-2 is more than 10000 nM. Besides, in the data set “in vivo”, the Vd was determined as 4.9 L/kg, the clearance came out at 23 mL/min/kg, the area under the curve AUC(0-t) is 7.39 µM·h and the half-life is 6.6 h. Further, the “Toxicity (body weight reduction, mice affected out of 7 treated)” value in data set [3] (100 mg/kg) is 0/7. Further, at PARP-3, the DC50 was more than 10000 nM. In addition, the “Max TGI (%)” value in [5] (100 mg/kg, schedule 1-20 daily) came to 23%. The IC50 in [6] is 1200 nM.
